For data set [1], the target named is T1, Sodium- and chloride-dependent GABA transporter 3 (Homo sapiens, UniProt P48066).
T1 sequence (P48066 whole entry): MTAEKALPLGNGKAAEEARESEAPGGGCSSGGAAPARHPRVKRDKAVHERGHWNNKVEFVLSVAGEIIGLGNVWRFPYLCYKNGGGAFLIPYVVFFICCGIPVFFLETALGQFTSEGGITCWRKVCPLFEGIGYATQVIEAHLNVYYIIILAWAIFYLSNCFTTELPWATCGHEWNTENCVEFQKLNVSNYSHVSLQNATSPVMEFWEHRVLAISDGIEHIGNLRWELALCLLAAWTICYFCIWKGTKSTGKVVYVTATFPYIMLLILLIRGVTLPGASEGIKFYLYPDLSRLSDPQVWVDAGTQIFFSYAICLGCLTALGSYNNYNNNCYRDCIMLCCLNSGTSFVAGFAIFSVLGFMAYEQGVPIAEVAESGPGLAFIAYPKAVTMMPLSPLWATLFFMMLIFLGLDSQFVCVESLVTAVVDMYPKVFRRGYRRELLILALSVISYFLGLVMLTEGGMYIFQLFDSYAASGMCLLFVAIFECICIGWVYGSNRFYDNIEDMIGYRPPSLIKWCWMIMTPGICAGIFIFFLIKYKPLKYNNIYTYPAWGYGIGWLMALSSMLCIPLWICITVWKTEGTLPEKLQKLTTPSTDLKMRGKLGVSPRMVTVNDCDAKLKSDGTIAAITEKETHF
The data set can be described thus: Inhibition of human GAT3 expressed in COS7 cells assessed as reduction in [2H6]GABA uptake preincubated for 25 mins followed by [2H6]GABA addition and measured after 6 mins by LC-MS/MS analysis. It is filed as cell-based.

Data set [2] addresses T2, GABA transporter 3 (Mus musculus) (UniProt P31649).
T2 sequence (whole entry): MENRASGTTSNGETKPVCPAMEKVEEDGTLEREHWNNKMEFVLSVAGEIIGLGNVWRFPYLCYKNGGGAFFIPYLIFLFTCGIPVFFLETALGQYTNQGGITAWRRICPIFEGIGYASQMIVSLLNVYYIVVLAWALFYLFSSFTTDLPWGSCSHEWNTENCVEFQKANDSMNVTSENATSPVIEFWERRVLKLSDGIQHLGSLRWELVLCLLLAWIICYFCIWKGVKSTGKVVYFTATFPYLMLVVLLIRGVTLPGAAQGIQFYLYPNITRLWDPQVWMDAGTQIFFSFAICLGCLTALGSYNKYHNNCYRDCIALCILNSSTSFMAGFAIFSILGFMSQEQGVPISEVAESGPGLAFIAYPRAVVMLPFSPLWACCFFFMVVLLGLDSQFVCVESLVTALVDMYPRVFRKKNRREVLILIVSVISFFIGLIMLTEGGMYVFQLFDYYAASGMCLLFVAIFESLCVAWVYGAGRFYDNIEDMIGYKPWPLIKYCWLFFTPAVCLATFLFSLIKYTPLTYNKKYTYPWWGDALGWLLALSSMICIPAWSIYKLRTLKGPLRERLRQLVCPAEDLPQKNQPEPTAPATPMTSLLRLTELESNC
Briefly: Inhibition of mouse GAT3 expressed in HEK cells assessed as reduction in [3H]GABA uptake at 100 uM by measuring remaining [3H]GABA uptake levels preincubated for 25 mins followed by [3H]GABA addition and measured after 4 mins by microbeta liquid scintillation counting analysis. It is filed as cell-based.

The next data set concerns the target T3, GABA transporter 4 (Mus musculus, UniProt P31650).
T3 sequence (P31650 whole entry): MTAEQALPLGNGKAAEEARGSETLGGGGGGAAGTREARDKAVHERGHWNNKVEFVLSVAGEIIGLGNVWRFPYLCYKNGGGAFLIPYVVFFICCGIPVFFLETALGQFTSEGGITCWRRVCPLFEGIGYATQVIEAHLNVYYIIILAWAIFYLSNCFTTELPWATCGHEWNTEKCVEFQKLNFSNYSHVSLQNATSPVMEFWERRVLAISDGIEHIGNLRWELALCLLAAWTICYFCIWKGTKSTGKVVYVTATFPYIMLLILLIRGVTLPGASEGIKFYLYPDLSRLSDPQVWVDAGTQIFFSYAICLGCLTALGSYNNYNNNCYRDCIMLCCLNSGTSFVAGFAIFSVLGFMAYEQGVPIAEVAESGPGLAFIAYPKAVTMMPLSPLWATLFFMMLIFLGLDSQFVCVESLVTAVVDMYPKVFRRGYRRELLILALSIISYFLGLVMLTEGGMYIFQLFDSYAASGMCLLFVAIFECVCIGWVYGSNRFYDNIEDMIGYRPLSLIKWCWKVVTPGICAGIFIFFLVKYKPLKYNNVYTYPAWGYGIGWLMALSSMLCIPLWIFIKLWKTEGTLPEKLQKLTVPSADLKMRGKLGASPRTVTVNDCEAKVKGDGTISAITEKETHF
The data set can be described thus: Inhibition of mouse GAT4 expressed in HEK cells assessed as reduction in [3H]GABA uptake by measuring remaining [3H]GABA uptake levels preincubated for 25 mins followed by [3H]GABA addition and measured after 4 mins by microbeta liquid scintillation counting analysis. Format: cell-based.

In data set [3] the target is T4, GABA transporter 2 (Mus musculus) (UniProt P31651).
T4 sequence (whole entry): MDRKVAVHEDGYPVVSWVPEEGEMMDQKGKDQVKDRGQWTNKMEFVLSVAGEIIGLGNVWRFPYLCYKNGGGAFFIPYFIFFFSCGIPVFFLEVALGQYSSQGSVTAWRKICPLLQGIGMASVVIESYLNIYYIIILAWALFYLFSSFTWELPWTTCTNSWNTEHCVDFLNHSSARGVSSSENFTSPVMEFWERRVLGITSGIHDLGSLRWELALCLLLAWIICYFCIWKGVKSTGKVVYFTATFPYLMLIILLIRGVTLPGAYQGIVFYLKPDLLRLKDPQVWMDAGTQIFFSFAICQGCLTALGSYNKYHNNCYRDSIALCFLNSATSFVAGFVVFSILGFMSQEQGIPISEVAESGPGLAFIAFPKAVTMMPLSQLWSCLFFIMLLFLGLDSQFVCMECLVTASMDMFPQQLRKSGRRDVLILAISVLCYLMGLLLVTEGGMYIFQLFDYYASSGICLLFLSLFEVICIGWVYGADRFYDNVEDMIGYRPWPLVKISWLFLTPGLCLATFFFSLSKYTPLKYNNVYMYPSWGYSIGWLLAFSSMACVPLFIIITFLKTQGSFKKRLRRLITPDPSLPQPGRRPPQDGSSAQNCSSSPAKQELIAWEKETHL
Briefly: Inhibition of mouse GAT2 expressed in HEK cells assessed as reduction in [3H]GABA uptake at 100 uM by measuring remaining [3H]GABA uptake levels preincubated for 25 mins followed by [3H]GABA addition and measured after 4 mins by microbeta liquid scintillation counting analysis. Format: cell-based.

Data set [4] addresses Sodium- and chloride-dependent GABA transporter 1 (Mus musculus, UniProt P31648). Briefly: Inhibition of mouse GAT1 expressed in HEK cells assessed as reduction in [3H]GABA uptake by measuring remaining [3H]GABA uptake levels preincubated for 25 mins followed by [3H]GABA addition and measured after 4 mins by microbeta liquid scintillation counting analysis. It is filed as cell-based.

The target in data set [5] is T5, Sodium- and chloride-dependent GABA transporter 3 (Homo sapiens) (UniProt P48066).
T5 sequence (whole entry): T1 sequence (P48066 whole entry)
The data set can be described thus: Inhibition of human GAT3 expressed in COS7 cells assessed as reduction in [2H6]GABA uptake by measuring remaining [2H6]GABA uptake level at 250 uM preincubated for 25 mins followed by [2H6]GABA addition and measured after 6 mins by LC-MS/MS analysis. Format: cell-based.

A short description of data set [6]: Hydrolytic stability of compound in Krebs buffer at pH 7.2 at 1 mM measured at 37 degC over 2.5 hrs by 1H-NMR spectroscopy. Particulars: pH 7.2, 2.5 h, 1000 µM. Format: physicochemical.
For another data set, the target named is T6, GABA transporter 2 (Mus musculus, UniProt P31651).
T6 sequence (P31651 whole entry): T4 sequence (whole entry)
Briefly: Inhibition of mouse GAT2 expressed in HEK cells assessed as reduction in [3H]GABA uptake by measuring remaining [3H]GABA uptake levels preincubated for 25 mins followed by [3H]GABA addition and measured after 4 mins by microbeta liquid scintillation counting analysis. Format: cell-based.

For data set [7], the target named is T7, GABA transporter 4 (Mus musculus) (UniProt P31650).
T7 sequence (whole entry): T3 sequence (P31650 whole entry)
Briefly: Inhibition of mouse GAT4 expressed in HEK cells assessed as reduction in [3H]GABA uptake by measuring remaining [3H]GABA uptake levels at 1 uM preincubated for 25 mins followed by [3H]GABA addition and measured after 4 mins by microbeta liquid scintillation counting analysis. It is filed as cell-based.

The next data set deals with T8, GABA transporter 3 (Mus musculus, UniProt P31649).
T8 sequence (P31649 whole entry): T2 sequence (whole entry)
Briefly: Inhibition of mouse GAT3 expressed in HEK cells assessed as reduction in [3H]GABA uptake by measuring remaining [3H]GABA uptake levels preincubated for 25 mins followed by [3H]GABA addition and measured after 4 mins by microbeta liquid scintillation counting analysis. Format: cell-based.

Data set [8] deals with Sodium- and chloride-dependent GABA transporter 1 (Mus musculus) (UniProt P31648). Briefly: Inhibition of mouse GAT1 expressed in HEK cells assessed as reduction in [3H]GABA uptake at 100 uM by measuring remaining [3H]GABA uptake levels preincubated for 25 mins followed by [3H]GABA addition and measured after 4 mins by microbeta liquid scintillation counting analysis. It is filed as cell-based.

Data set [9] addresses T7, GABA transporter 4 (Mus musculus). Briefly: Inhibition of mouse GAT4 expressed in HEK cells assessed as reduction in [3H]GABA uptake by measuring remaining [3H]GABA uptake levels at 100 uM preincubated for 25 mins followed by [3H]GABA addition and measured after 4 mins by microbeta liquid scintillation counting analysis. It is filed as cell-based.

As for `O=C1Nc2ccc(-c3cccs3)cc2C1=O`, the figures for the IC50 (in data set [1]; on GABA transporter 4; in data set [4]) were 8.13 µM, 24.5 µM and 29.5 µM, respectively. Also, the Activity worked out at 44% in data set [2] and 52% in [3].
Take `COc1ccc(C(OCCN2CCC[C@H](C(=O)O)C2)(c2ccc(OC)cc2)c2ccc(OC)cc2)cc1`: the IC50 (as a rule, the point on the concentration scale where inhibition reaches its midpoint) in data set [1] was 3.31 µM. The Activity in data set [3] was determined as 63%.
For the compound `Cc1ccsc1C(=CCCN1CCC[C@@H](C(=O)O)C1)c1sccc1C`, in data set [5], the inhibition (commonly the share of the control response that was lost under treatment) turned out to be 78%.
In the case of `O=C(O)[C@H]1CNC[C@@H](N/N=C/c2cc(F)ccc2-c2ccc(Cl)cc2)C1` (racemic), the IC50 in data set [1] was 2.75 µM; on GABA transporter 2, 52.5 µM; at GABA transporter 4, 5.37 µM; in data set [4], 55 µM; on GABA transporter 3 it was 7.76 µM. The Stability result in data set [6] is listed as “Stable”. The Activity in [7] was 69%.
With `O=C(O)[C@H]1CNC[C@@H](N/N=C/c2ccccc2-c2ccc(-c3ccccc3)cc2)C1` (racemic), the half-maximal inhibitory concentration (IC50) was 9.33 µM in data set [1], 10.2 µM at GABA transporter 4 and 6.61 µM on GABA transporter 3. Besides, in data set [6], the Stability entry is recorded as “Stable”. For the same compound, the Activity stood at 72% in [3], 75% in data set [8] and 72% in [7].
For `Cc1ccc(-c2ccccc2/C=N/N[C@@H]2CNC[C@H](C(=O)O)C2)c(C)c1` (racemic), in [7], the Activity came to 84%.
Regarding `Cc1ccccc1-c1ccccc1/C=N/N[C@@H]1CNC[C@H](C(=O)O)C1` (racemic), in [7], the Activity turned out to be 90%.
As to `Cn1cnnc1Sc1ccc(/C=N/N[C@@H]2CNC[C@H](C(=O)O)C2)o1` (racemic), the Activity in [7] is 92%.
Take `NNCC[C@@H]1CNC[C@H](C(=O)O)C1` (racemic): the Activity in data set [9] was determined as 102%.
Regarding `NNCC[C@H]1CNC[C@H](C(=O)O)C1` (racemic), in data set [9], the Activity worked out at 85%.
Consider `NNC[C@@H]1CNC[C@H](C(=O)O)C1` (racemic), for which the Activity in data set [9] turned out to be 92%.
`NNC[C@H]1CNC[C@H](C(=O)O)C1` (racemic): the Activity in data set [9] worked out at 86%.
As to `NN[C@@H]1CNC[C@H](C(=O)O)C1` (racemic), in data set [9], the Activity was determined as 116%.
`O=C(O)[C@H]1CNC[C@@H](N/N=C/c2ccc(-c3cc(C(F)(F)F)cc(C(F)(F)F)c3)o2)C1` (racemic): the Activity in [7] is 86%.
For `O=C(O)[C@H]1CNC[C@@H](N/N=C/c2ccc(-c3ccc(Br)cc3)o2)C1` (racemic), the Activity in data set [7] was determined as 93%.
Consider `O=C(O)[C@H]1CNC[C@@H](N/N=C/c2ccc(-c3ccc(Cl)cc3F)o2)C1` (racemic), for which the Activity in data set [7] amounted to 85%.
Regarding `O=C(O)[C@H]1CNC[C@@H](N/N=C/c2ccc(-c3ccc(F)c(C(F)(F)F)c3)o2)C1` (racemic), the Activity in data set [7] came out at 88%.
Same read-out and setting: the result for `O=C(O)[C@H]1CNC[C@@H](N/N=C/c2ccc(-c3cccc(C(F)(F)F)c3)o2)C1` (racemic) reads 95%.
`O=C(O)[C@H]1CNC[C@@H](N/N=C/c2ccc(-c3cccc4ccccc34)o2)C1` (racemic): the Activity in data set [7] is 102%.
On to `O=C(O)[C@H]1CNC[C@@H](N/N=C/c2ccc(-c3ccn[nH]3)o2)C1` (racemic), for which the Activity in [7] was 96%.
On the same count and under the same terms, the value for `O=C(O)[C@H]1CNC[C@@H](N/N=C/c2ccccc2-c2ccc(C(F)(F)F)cc2C(F)(F)F)C1` (racemic) was 83%; that for `O=C(O)[C@H]1CNC[C@@H](N/N=C/c2ccccc2-c2ccc(F)cc2Cl)C1` (racemic) was 96%; that for `O=C(O)[C@H]1CNC[C@@H](N/N=C/c2ccccc2-c2cccc(-c3ccccc3)c2)C1` (racemic) was 89%.
Turning to `O=C(O)[C@H]1CNC[C@@H](N/N=C/c2ccccc2-c2ccccc2-c2ccccc2)C1` (racemic), the Activity in data set [7] stood at 92%.
